In one series the target is HRV3C (Human rhinovirus 14, UniProt P03303). The series can be described thus: HRV3C protease assay (duplex, SAMDI-MS). Format: biochemical, HRV. The settings on record: 30 mins preincubation. On the procedure:
Protease assays were performed in 384-well low volume polypropylene microtiter plates at ambient temperature. For the duplex assay, 3CLpro and HRV3C was added using a Multidrop Combi (Thermo Scientific; Waltham, MA) and preincubated for 30 mins with small molecules. The reactions were initiated by the addition of the two peptide substrates. The reactions were incubated for 30 mins and quenched by the addition of 0.5% formic acid (final) with subsequent neutralization using 1% sodium bicarbonate (final). Internal standard peptides were added in 20 mM Hepes pH 8.0 for quantitation of the protease products. For SAMDI-MS analysis, 2 μL of each reaction mixture was transferred using a 384-channel automated liquid handler to SAMDI biochip arrays functionalized with a neutravidin-presenting self-assembled monolayer. The SAMDI arrays were incubated for 1 h in a humidified chamber to allow the specific immobilization of the biotinylated peptide substrates, cleaved products and internal standards. The samples were purified by washing the SAMDI arrays with deionized ultrafiltered water and dried with compressed air. A matrix comprising alpha-cyano cinnamic acid in 80% acetonitrile:20% aqueous ammonium citrate was applied in an automated format by dispensing 50 nL to each spot in the array. SAMDI-MS was performed using reflector-positive mode on an AB Sciex TOF-TOF 5800 System (AB Sciex, Framingham, MA) with 400 shots/spot analyzed in a random raster sampling. For data analysis, area under the curves (peaks) (AUCs) for the product and internal standard were calculated using the TOF/TOF Series Explorer (AB Sciex), and the amount of product formed was calculated using the equation (AUC product/AUC internal standard). The amount of product generated was calculated using the ratio of product area under the curve (AUC) divided by the AUC of the internal standard. Negative controls were pre-quenched with 0.5% formic acid final. Assay robustness was determined by Z-Factor. The IC50s were determined by fitting the curves using a four-parameter equation in Graphpad Prism 8.

Series [1] relates to human beta-coronavirus OC43. Nature of the series: microbe, parasite or virus in culture. Format: cell-based. The settings on record: Betacoronavirus 1, OC43, HeLa, 144 h.
Series [2] in a line: Cytotoxicity plates without OC43 virus (cell-titer-glo). Format: cell-based, human. Conditions: human; HeLa cells without OC43 virus, class symbols. The method, then: The human beta-coronavirus OC43 was purchased from ATCC (Manassas, VA) and propagated using HCT-8 human colorectal epithelial cells (ATCC). HeLa human cervical epithelial cells (ATCC) were used as susceptible host cell lines and were cultured using EMEM media, supplemented with 10% fetal bovine serum (FBS), 1% (v/v) penicillin/streptomycin (P/S), 1% (v/v) HEPES and 1% (v/v) Cellgro Glutagro™ supplement (all Corning, Manassas, VA) at 37° C. For the OC43 antiviral assay, 1.5×10^4 HeLa cells per well were plated in 100 μL complete media in white 96-well plates with clear bottoms at 37° C. for up to 24 h to facilitate attachment and allow cells to recover from seeding stresses. Next day, the cell culture medium was removed. Serially diluted compounds in 100 μL assay media (EMEM, 2% FBS, 1% P/S, 1% Cellgro Glutagro™ supplement, 1% HEPES) were added to the cells and incubated for 4H at 37° C. in a humidified 5% CO2 incubator. 100 μL of OC43 virus stock was diluted to a concentration known to produce optimal cytopathic effect, inducing 80-90% reduction in cell viability. 96-well plates were incubated for 6 (HeLa) days at 33° C.; each plate contains uninfected control wells as well as virus-infected wells that were not treated with compound. Cytotoxicity plates without the addition of OC43 virus were carried out in parallel. At the end of the incubation period, 100 μL cell culture supernatant was replaced with 100 μL cell-titer-glo reagent (Promega, Madison, WI) and incubated for at least 10 min at rt prior to measuring luminescence. Luminescence was measured on a Perkin Elmer (Waltham, MA) Envision plate reader. Antiviral % inhibition was calculated as follows: [(Compound treated cells infected sample)−(no compound infected control)]/[(Uninfected control)−(no compound infected control)]*100; Using GraphPad (San Diego, CA) prism software version 8.3.1, the antiviral dose-response plot was generated as a sigmoidal fit, log(inhibitor) vs response-variable slope (four parameters) model and the EC50 was calculated which is the predicted compound concentration corresponding to a 50% inhibition of the viral cytopathic effect.

The test system of series [3] is SARS-CoV-2-GHB-03021/2020. The series can be described thus: microbe, parasite or virus in culture. Format: cell-based. Conditions: Severe acute respiratory syndrome coronavirus 2, Vero C1008, 96 h; read-out: VeroE6 + CP (EC50).
The target in another series is T1, human cathepsin L (Homo sapiens, UniProt P07711).
T1 construct: purchased R&D Systems
Nature of the series: cathepsin L assay. It counts as biochemical. Conditions: 10 pM human cathepsin L, Z-FR-AMC 2 μM, class symbols. On the procedure:
For the cathepsin L assay, 10 pM of human cathepsin L (R&D Systems; Minneapolis, MN) was preincubated for 30 mins with test compounds. Reactions were initiated by the addition of a peptide substrate Z-FR-AMC (final concentration 2 μM, Anaspec; Fremont, CA). Fluorescence was measured at 2-minute intervals for 30 mins using a 355/460 excitation/emission filter module on an Envision plate reader (Perkin Elmer; Waltham, MA). The IC50 values were calculated for each assay by fitting the curves using a four-parameter equation in GraphPad Prism.

A short description of another series: in vitro. Conditions: African green monkey, VeroE6 + CP (CC50), Vero E6-eGFP cells with CP-100356, absence of virus, MTS.
The next series deals with 3CLpro (Severe acute respiratory syndrome coronavirus 2, UniProt P0DTD1). Nature of the series: SARS-CoV-2 3CLpro protease assay (duplex, SAMDI-MS). It counts as biochemical. Set-up: For the duplex assay, 3CLpro and HRV3C was added. The settings on record: 3CLpro, 30 mins preincubation, read-out: SARS-Cov-2 IC50.
[4] abbreviates: HRV3C, class symbols, read-out: HRV IC50.
Where [5] appears, read: OC43 in HeLa cells, 6 days at 33° C., class symbols, read-out: EC50.
[6] abbreviates: OC43 in HeLa cells, 6 days at 33° C., bound, read-out: EC50.

Like-named read-outs stand apart in the source and are kept apart here.

Broadly, the IC50 is the concentration that inhibits the measured activity by half. For orientation: EC50 means the concentration giving half of the maximal effect. The term CC50 denotes the concentration at which the toxic effect on the cells reaches its halfway point.

As for `COc1cccc2[nH]c(C(=O)N3C[C@@H]4CCC[C@@H]4[C@H]3C(=O)N[C@H](C=O)C[C@@H]3CCNC3=O)cc12` [Compound 14A, (1S,3aR,6aS)-2-(4-methoxy-1H-indole-2-carbonyl)-N-[(2S)-1-oxo-3-[(3S)-2-oxopyrrolidin-3-yl]propan-2-yl]-hexahydro-1H-cyclopenta[c]pyrrole-1-carboxamide], the half-inhibitory concentration (IC50) was 0.2 to 2 µM at HRV3C (setting [4]), at least 10 µM at human cathepsin L and 0.02 to 0.2 µM on 3CLpro (class symbols). Further, the figures for the 50% effective concentration (EC50) in series [1] (setting [5]) and in series [3] were 1 to 10 µM and 10 to 100 µM, respectively. Further, the CC50 at 6 days in series [2] was above 10 µM. Moreover, in “in vitro” (numeric bounds), the CC50 was above 100 µM.
As for `COc1cccc2[nH]c(C(=O)N3C[C@@H]4CCC[C@@H]4[C@H]3C(=O)N[C@@H](C[C@@H]3CCNC3=O)C(=O)c3cnc[nH]3)cc12` [Compound 74, (1S,3aR,6aS)—N-[(2S)-1-(3H-imidazol-4-yl)-1-oxo-3-[(3S)-2-oxopyrrolidin-3-yl]propan-2-yl]-2-(4-methoxy-1H-indole-2-carbonyl)-hexahydro-1H-cyclopenta[c]pyrrole-1-carboxamide], the IC50 against HRV3C (HRV IC50, HRV3C, bound) is above 10 µM; on human cathepsin L, at least 10 µM; on 3CLpro (bound), above 10 µM. Further, the 50% effective concentration (EC50) in series [1] was above 10 µM; in series [3] it was 10 to 100 µM. In series [2], the half-maximal cytotoxic concentration (CC50) at 6 days is above 10 µM. Besides, the CC50 in “in vitro” (class symbols) is above 10 µM.
As to `COc1cccc2[nH]c(C(=O)N3C[C@@H]4CCC[C@@H]4[C@H]3C(=O)N[C@@H](C[C@@H]3CCNC3=O)C(=O)c3nc4ccccc4o3)cc12` [Compound 75, (1S,3aR,6aS)—N-[(2S)-1-(1,3-benzoxazol-2-yl)-1-oxo-3-[(3S)-2-oxopyrrolidin-3-yl]propan-2-yl]-2-(4-methoxy-1H-indole-2-carbonyl)-hexahydro-1H-cyclopenta[c]pyrrole-1-carboxamide], the IC50 was above 10 µM against HRV3C (HRV IC50, HRV3C, bound); at least 10 µM at human cathepsin L; 0.02 to 0.2 µM on 3CLpro (class symbols). In addition, the EC50 in series [1] (setting [5]) lay in the range of 0.1 to 1 µM; in series [3], 1 to 10 µM. The CC50 at 6 days in series [2] is above 10 µM. Besides, in the series “in vitro” (numeric bounds), the CC50 is above 100 µM.
Turning to `O=C1NCC[C@H]1C[C@H](NC(=O)[C@@H]1[C@H]2CCC[C@H]2CN1C(=O)c1cc2c(=O)[nH]ccc2[nH]1)C(=O)CO` [Compound 76, (1S,3aR,6aS)—N-[(2S)-4-hydroxy-3-oxo-1-[(3S)-2-oxopyrrolidin-3-yl]butan-2-yl]-2-{4-oxo-1H,5H-pyrrolo[3,2-c]pyridine-2-carbonyl}-hexahydro-1H-cyclopenta[c]pyrrole-1-carboxamide], the 50% inhibitory concentration (IC50) against HRV3C (HRV IC50, HRV3C, class symbols) was 0.2 to 2 µM; on human cathepsin L it was at least 10 µM; at 3CLpro (class symbols), 0.02 to 0.2 µM. The results for the concentration for a half-maximal effect (EC50) in series [1] (setting [6]) and in series [3] were above 10 µM and 10 to 100 µM, respectively. Further, the CC50 at 6 days in series [2] was above 10 µM. For the same molecule, in the series “in vitro” (numeric bounds), the CC50 is above 100 µM.
In the case of `Cn1ccc2[nH]c(C(=O)N3C[C@@H]4CCC[C@@H]4[C@H]3C(=O)N[C@@H](C[C@@H]3CCNC3=O)C(=O)CO)cc2c1=O` [Compound 77, (1S,3aR,6aS)—N—((S)-4-hydroxy-3-oxo-1-((S)-2-oxopyrrolidin-3-yl)butan-2-yl)-2-(5-methyl-4-oxo-4,5-dihydro-1H-pyrrolo[3,2-c]pyridine-2-carbonyl)octahydrocyclopenta[c]pyrrole-1-carboxamide], the IC50 on HRV3C (HRV IC50, HRV3C, class symbols) is 2 to 20 µM; against human cathepsin L, at least 10 µM; at 3CLpro (class symbols), 0.02 to 0.2 µM. Moreover, the EC50 was above 10 µM in series [1] and 10 to 100 µM in series [3]. The molecule further returned a 50% cytotoxic concentration (CC50) at 6 days in series [2] above 10 µM. The CC50 in the series “in vitro” (class symbols) was above 10 µM.
With `O=C1NCC[C@H]1C[C@H](NC(=O)[C@@H]1[C@H]2CCC[C@H]2CN1C(=O)c1cc2ncccc2[nH]1)C(=O)CO` [Compound 78, (1S,3aR,6aS)—N—((S)-4-hydroxy-3-oxo-1-((S)-2-oxopyrrolidin-3-yl)butan-2-yl)-2-(1H-pyrrolo[3,2-b]pyridine-2-carbonyl)octahydrocyclopenta[c]pyrrole-1-carboxamide], the IC50 at HRV3C (setting [4]) is 2 to 20 µM; against human cathepsin L, at least 10 µM; at 3CLpro (class symbols), 0.02 to 0.2 µM. Also, the values for the half-maximal effective concentration (EC50) in series [1] (setting [5]) and in series [3] were 1 to 10 µM and 10 to 100 µM, respectively. The same molecule yielded a CC50 at 6 days in series [2] above 10 µM. Besides, the CC50 in “in vitro” (numeric bounds) is above 100 µM.
As for `COc1cccc2[nH]c(C(=O)N3C[C@@H]4CCC[C@@H]4[C@H]3C(=O)N[C@@H](C[C@@H]3CCNC3=O)C(=O)c3nc4ccccc4[nH]3)cc12` [Compound 92, (1S,3aR,6aS)—N-[(2S)-1-(1H-1,3-benzodiazol-2-yl)-1-oxo-3-[(3S)-2-oxopyrrolidin-3-yl]propan-2-yl]-2-(4-methoxy-1H-indole-2-carbonyl)-hexahydro-1H-cyclopenta[c]pyrrole-1-carboxamide], the IC50 against HRV3C (HRV IC50, HRV3C, bound) was above 10 µM; at human cathepsin L, at least 10 µM; at 3CLpro (class symbols), 0.2 to 2 µM. The values for the concentration for a half-maximal effect (EC50) in series [1] (setting [6]) and in series [3] were above 10 µM and 10 to 100 µM, respectively. In addition, the half-maximal cytotoxic concentration (CC50) at 6 days in series [2] is above 10 µM. Further, in “in vitro” (numeric bounds), the CC50 was above 100 µM.
Take `COc1cccc2[nH]c(C(=O)N3Cc4ccccc4C[C@H]3C(=O)N[C@@H](C[C@@H]3CCNC3=O)C(=O)COCc3ccccc3)cc12` [Compound 99]: the half-inhibitory concentration (IC50) on HRV3C (HRV3C, bound, read-out: HRV IC50) is above 10 µM; on human cathepsin L, at least 10 µM; at 3CLpro (class symbols), 2 to 20 µM. The figures for the 50% effective concentration (EC50) in series [1] (setting [6]) and in series [3] were above 10 µM and 10 to 100 µM, respectively. In series [2], the cytotoxic concentration (CC50) at 6 days is above 10 µM. Besides, in “in vitro” (class symbols), the 50% cytotoxic concentration (CC50) was above 10 µM.
`COc1cccc2[nH]c(C(=O)N3C[C@@H]4CCC[C@@H]4[C@H]3C(=O)N[C@@H](C[C@@H]3CCNC3=O)C(=O)C(=O)NCC(F)(F)F)cc12` [Compound 114]: the IC50 is 2 to 20 µM at HRV3C (setting [4]), at least 10 µM against human cathepsin L and 0.2 to 2 µM at 3CLpro (class symbols). Also, the results for the concentration giving a half-maximal response (EC50) in series [1] (setting [5]) and in series [3] were 1 to 10 µM and 10 to 100 µM, respectively. The molecule further returned a cytotoxic concentration (CC50) at 6 days in series [2] above 10 µM. Moreover, the CC50 in “in vitro” (numeric bounds) was above 50 µM.

The values are drawn from patent US11952365B2, “Anti-viral compounds” (Aligos Therapeutics, Inc., priority 2020, dated 2024).
